Measurements from paper PMC9398908, “GLP-1-mediated delivery of tesaglitazar improves obesity and glucose metabolism in male mice” (Nature Metabolism, 2022).
“And” between values parts separate entries of the source, which are not always exact repeats. Equal values may be shown once.

Key:
[1] = system: hGLP-1R; assay: Ligand-induced cAMP production (BRET) in mouse MIN6 β-cells; assay type: cell-based, human; conditions: Fig. 1e, in words
Experimental: (§1) HEK293T cells (700,000 per well) were seeded in six-well plates and incubated to 70% confluency in DMEM (10% FBS, 1% Pen/Strep). Twenty-four hours following seeding, transient transfections were performed using Lipofectamine 2000 (catalogue no. 11668019, Invitrogen) according to the manufacturer’s protocol without including additional transformation carrier DNA.
Twenty-four hours following transfection, HEK293T cells or MIN6 cells were washed with PBS and resuspended in FluoroBrite phenol red-free complete media (catalogue no. A1896701, Life Technologies) containing 5% FBS and 2 mM of L-glutamine (catalogue no. 25030081, Life Technologies). 100,000 cells per well were plated into poly-D-lysine-coated (catalogue no. P6403, Sigma-Aldrich) 96-well white polystyrene LumiNunc plates (catalogue no. 10072151, Thermo Fisher Scientific). After 24 h, the media was replaced with PBS (catalogue no. 10010056, Gibco) containing 10 μM of coelenterazine-h (catalogue no. S2011, Promega) or 1:500 dilution of NanoGlo (catalogue no. N1110, Promega). BRET measurements were taken every 30 s–2 min using a PHERAstar FS multi-mode microplate reader. […] The resulting ligand-specific ratiometric BRET signals were normalized to vehicle producing the ‘ligand-induced BRET ratio’[37], followed by an additional normalization step to well-specific baseline readings.

[2] = target: T1, PPARγ2/RXR (Homo sapiens, UniProt P37231); assay: RXR-Rluc8 / PPARγ2-YFP heterodimerization (BRET) in hGLP-1R(−) HEK293T cells; assay type: cell-based; conditions: GLP-1R (-), 1μM
T1 construct: host or cells: HEK293T, with (A8) or without (A9) co-expressed hGLP-1R
T1 sequence (P37231 1-505): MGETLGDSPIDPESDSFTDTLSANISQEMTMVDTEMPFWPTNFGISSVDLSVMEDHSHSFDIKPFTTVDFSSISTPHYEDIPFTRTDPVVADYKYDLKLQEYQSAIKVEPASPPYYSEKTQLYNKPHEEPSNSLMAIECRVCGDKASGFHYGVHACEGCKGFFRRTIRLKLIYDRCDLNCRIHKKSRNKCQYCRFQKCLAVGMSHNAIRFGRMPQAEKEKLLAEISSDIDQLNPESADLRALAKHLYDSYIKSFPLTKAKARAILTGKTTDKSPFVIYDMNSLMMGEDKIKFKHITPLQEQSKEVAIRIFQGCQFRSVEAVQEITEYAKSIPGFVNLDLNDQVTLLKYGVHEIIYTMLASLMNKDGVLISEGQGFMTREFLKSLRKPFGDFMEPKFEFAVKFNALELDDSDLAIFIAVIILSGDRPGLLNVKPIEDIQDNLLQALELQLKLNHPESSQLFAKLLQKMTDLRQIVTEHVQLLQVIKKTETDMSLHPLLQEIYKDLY
T1 sequence (P19793 1-462 partner): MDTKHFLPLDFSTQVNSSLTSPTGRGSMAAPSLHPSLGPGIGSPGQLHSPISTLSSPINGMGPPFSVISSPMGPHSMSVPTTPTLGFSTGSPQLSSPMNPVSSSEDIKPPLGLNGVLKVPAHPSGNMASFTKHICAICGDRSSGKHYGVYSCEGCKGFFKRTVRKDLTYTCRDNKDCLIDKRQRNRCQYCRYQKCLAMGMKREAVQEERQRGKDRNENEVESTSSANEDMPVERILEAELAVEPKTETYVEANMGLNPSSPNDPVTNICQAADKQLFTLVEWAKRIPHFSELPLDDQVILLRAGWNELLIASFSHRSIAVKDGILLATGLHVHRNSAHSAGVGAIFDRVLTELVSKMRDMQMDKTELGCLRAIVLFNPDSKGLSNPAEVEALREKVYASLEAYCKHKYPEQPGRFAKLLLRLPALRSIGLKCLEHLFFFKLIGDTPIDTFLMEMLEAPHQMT
Experimental: as §1
Twenty-four hours following transfection, HEK293T cells or MIN6 cells were washed with PBS and resuspended in FluoroBrite phenol red-free complete media (catalogue no. A1896701, Life Technologies) containing 5% FBS and 2 mM of L-glutamine (catalogue no. 25030081, Life Technologies). 100,000 cells per well were plated into poly-D-lysine-coated (catalogue no. P6403, Sigma-Aldrich) 96-well white polystyrene LumiNunc plates (catalogue no. 10072151, Thermo Fisher Scientific). After 24 h, the media was replaced with PBS (catalogue no. 10010056, Gibco) containing 10 μM of coelenterazine-h (catalogue no. S2011, Promega) or 1:500 dilution of NanoGlo (catalogue no. N1110, Promega). BRET measurements were taken every 30 s–2 min using a PHERAstar FS multi-mode microplate reader. Baseline measurements were taken after an initial 5 min of incubation with coelenterazine-h or NanoGlo-containing PBS after which cells were then treated with either vehicle (PBS) or respective ligands. The resulting ligand-specific ratiometric BRET signals were normalized to vehicle producing the ‘ligand-induced BRET ratio’[37], followed by an additional normalization step to well-specific baseline readings. Ligand-induced measurements on the temporal scale is represented as the subsequent measurement after time point zero. Positive or negative incremental AUC (+iAUC/−iAUC) were calculated where noted. Each experiment was independently performed at least three times, each with at least three technical replicates for each group.
Untagged hGLP-1R was purchased from Sino Biological Inc. (catalogue no. HG13944-UT), hGLP-1R-GFP was a kind gift from D. Hodson (University of Birmingham), and hGLP-1R-Rluc8 was a kind gift from P. Sexton (Monash University, Melbourne, Australia). Gαs recruitment to the GLP-1R-GFP was quantified using mini-Gαs, a protein probe that translocates to ligand-bound Gαs-coupled G-protein coupled receptors. NES-Nluc-MiniGαs was a gift from K. Pfleger (Harry Perkins Institute of Medical Research, Nedlands, Western Australia, Australia). Intracellular cAMP was measured using the YFP-Epac-Rluc CAMYEL sensor[39]. hGLP-1R-RLUC8 internalization was quantified using the intracellular plasma membrane marker Venus-KRAS[40]. […] GLP-1R-Rluc8 lysosomal colocalization was measured using Lamp1-mNeonGreen. […] Time-dependent RXR/PPARγ heterodimerization was measured using RXR-Rluc8 and PPARγ2-YFP, both of which were kind gifts from V. Ollendorf[41].

[3] = system: DIO mice; assay: In vivo glucose-stimulated insulin secretion in DIO mice (Fig. 2i); design: species or system mouse; conditions: Figure 2i, individual mice
[4] = system: C57BL/6J DIO mice; assay: Urinary albumin:creatinine ratio in DIO mice (Extended Data Fig. 2g); assay type: in vivo, mouse; conditions: 14-day treatment, 50 nmol kg−1 per day, in words
From the text: Frozen urine samples from heterozygous GIPR^dn mice in a CD1 background (n = 3) served as positive controls. […] For each treatment group, uACR was computed as a ratio of urinary albumin (mg ml^−1) to urinary creatinine (mg ml^−1).

RXR/PPARγ Heterodimerization (AUC), +iAUC ([2]; replicate 1): 59.69
RXR/PPARγ Heterodimerization (AUC), +iAUC ([2]; replicate 2): 107.20
RXR/PPARγ Heterodimerization (AUC), +iAUC ([2]; replicate 3): 71.87
RXR/PPARγ Heterodimerization (AUC), +iAUC ([2]; replicate 4): 114.00
urinary albumin:creatinine ratio [4]: likewise not changed
SMILES: CCO[C@@H](Cc1ccc(OCCc2ccc(OS(C)(=O)=O)cc2)cc1)C(=O)O [tesaglitazar, (S)-2-ethoxy-3-(4-(4-((methylsulfonyl)oxy)phenethoxy)phenyl) propanoic acid]
cAMP production [1]: had no effect
GSIS [3]: 0.684 and 1.33 and 1.611 and 0.796 and 0.457 and 0.687 and 1.335 and 1.19
